Data set [1] in a line: logP determination by HPLC (EEC directive 79/831 Annex V.A8, reversed-phase C 18). To be noted: reversed-phase HPLC column (C 18), pH 2.3, HPLC, reversed-phase column (C 18), 43° C., pH 2.3, 0.1% aqueous phosphoric acid/acetonitrile; read-out: log P. The format is physicochemical. The method, then: The stated logP values were determined in accordance with EEC directive 79/831 Annex V.A8 by HPLC (High Performance Liquid Chromatography) using a reversed-phase column (C 18). Temperature: 43° C. In the acidic range, the determination was carried out at pH 2.3 using the mobile phases 0.1% aqueous phosphoric acid and acetonitrile; linear gradient from 10% acetonitrile to 90% acetonitrile.

In data set [2] the test system is Heliothis virescens caterpillars. Description: Heliothis virescens test. To be noted: 1000 ppm, soyabean shoots dipped. The format is in vivo. On the procedure: Solvent: 30 parts by weight of dimethylformamide Emulsifier: 1 part by weight of alkylaryl polyglycol ether To produce a suitable preparation of active compound, 1 part by weight of active compound is mixed with the stated amounts of solvent and emulsifier, and the concentrate is diluted with emulsifier-containing water to the desired concentration. Soyabean shoots (Glycine max) are treated by being dipped into the preparation of active compound of the desired concentration and populated with Heliothis virescens caterpillars whilst the leaves are still moist. After the desired period of time, the kill in % is determined. 100% means that all caterpillars have been killed; 0% means that none of the caterpillars have been killed.

Data set [3] concerns fruit tree spider mite (Panonychus ulmi). Nature of the data set: Panonychus test. The format is in vivo. The settings on record: 200 ppm, plum trees sprayed. On the procedure: To produce a suitable preparation of active compound, 1 part by weight of active compound is mixed with the stated amounts of solvent and emulsifier, and the concentrate is diluted with emulsifier-containing water to the desired concentration.
Plum trees (Prunus domestica) of a height of about 30 cm which are heavily infested by all stages of the fruit tree spider mite (Panonychus ulmi) are sprayed with a preparation of active compound of the desired concentration.
After the desired period of time, the effect in % is determined. 100% means that all spider mites have been killed; 0% means that none of the spider mites have been killed.

Data set [4] has as its system caterpillars of the diamond-back moth (Plutella xylostella). Description: Plutella test. To be noted: 1000 ppm, cabbage leaves dipped. The format is in vivo. On the procedure: (§1) [table] To produce a suitable preparation of active compound, 1 part by weight of active compound is mixed with the stated amounts of solvent and emulsifier, and the concentrate is diluted with emulsifier-containing water to the desired concentration. Cabbage leaves (Brassica oleracea) are treated by being dipped into the preparation of active compound of the desired concentration and are populated with caterpillars of the diamond-back moth (Plutella xylostella) whilst the leaves are still moist. After the desired period of time, the kill in % is determined. 100% means that all caterpillars have been killed; 0% means that none of the caterpillars have been killed.

For data set [5], the system named is caterpillars of the army-worm (Spodoptera exigua). Nature of the data set: Spodoptera exigua test. It counts as in vivo. The settings on record: 1000 ppm, cabbage leaves dipped. The method, then: as §1, with “army-worm (Spodoptera exigua)” for “diamond-back moth (Plutella xylostella)”
Data set [6] relates to caterpillars of the army-worm (Spodoptera frugiperda). Nature of the data set: Spodoptera frugiperda test. The format is in vivo. The settings on record: 1000 ppm, cabbage leaves dipped. The method, then: as §1, with “army-worm (Spodoptera frugiperda)” for “diamond-back moth (Plutella xylostella)”
The test system of the next data set is Lucilia cuprina larvae. Nature of the data set: Blowfly larvae test / development-inhibitory action. The format is in vivo. To be noted: 100 ppm. On the procedure: [table] 20 mg of active compound are dissolved in 1 ml of dimethyl sulphoxide, more dilute concentrations are prepared by dilution with dist. H2O. About 20 Lucilia cuprina larvae are introduced into a test tube which contains about 1 cm^3 of horsemeat and 0.5 ml of the preparation of active compound to be tested. The activity of the preparation of active compound is determined after 24 and 48 hours. The test tubes are transferred into a beaker whose bottom is covered with sand. After a further 2 days, the test tubes are removed and the pupae are counted. The activity of the preparation of active compound is assessed using the number of flies that have hatched after 1.5 times the development period of an untreated control. 100% means that none of the flies have hatched; 0% means that all of the flies have hatched normally.

In data set [7] the test system is Amblyomma variegatum or A. hebraeum, nymphs which have sucked themselves full. Nature of the data set: Nymph ecdysis test on polyphagous ticks. It counts as in vivo. To be noted: 100 ppm; nymphs immersed for 1 minute; assessed after 4 to 6 weeks. The method, then: [table] 20 mg of active compound are dissolved in 1 ml of dimethyl sulphoxide, more dilute concentrations are prepared by dilution with dist. H2O. 10 nymphs which have sucked themselves full are immersed for 1 minute into the preparation of active compound to be tested. The animals are transferred to petri dishes (Ø0 9.5 cm) fitted with filter discs and covered. After the nymphs have remained in a controlled-environment cabinet for 4 to 6 weeks, the effect on ecdysis is determined. 100% means that none of the animals have undergone normal ecdysis. 0% means that all animals have undergone ecdysis.

On to `Fc1cccc(F)c1C1=NC(c2ccc(-c3ccc(OC(F)(F)F)cc3)cc2)CC1(Cl)Cl` (centres unmarked) [Example 4, 4,4-dichloro-5-(2,6-difluorophenyl)-2-[4′-(trifluoromethoxy)-1,1′-biphenyl-4-yl]-3,4-dihydro-2H-pyrrole], for which the melting point lay in the range of 60 to 61 °C. In addition, the chromatographic logP in [1] is 5.92.
In the case of `Fc1cccc(F)c1C1=NC(c2ccc(-c3ccc(OC(F)(F)F)cc3)cc2)CC1(Cl)Cl` (centres unmarked) [drawing 52], the “Kill rate in % after 6 d” value in [2] came out at 100%.
As to `Fc1cccc(F)c1C1=NC(c2ccc(-c3ccc(OC(F)(F)F)cc3)cc2)CC1Cl` (centres unmarked) [drawing 53], in data set [2], the “Kill rate in % after 6 d” value worked out at 100%.
Regarding `Fc1cccc(F)c1C1=N[C@@H](c2ccc(-c3ccc(OC(F)(F)F)cc3)cc2)CC1(Cl)Cl` [drawing 54], in data set [2], the “Kill rate in % after 6 d” value is 100%.
`O=S(=O)(Oc1ccc(-c2ccc([C@H]3C[C@H](Cl)C(c4c(F)cccc4F)=N3)cc2)cc1)C(F)(F)F` [drawing 55]: in data set [3], the “Kill rate in % after 14 d” value was found to be 100%.
Take `Fc1cccc(F)c1C1=NC(c2ccc(-c3ccc(OC(F)(F)F)cc3)cc2)CC1Cl` (centres unmarked) [drawing 65]: the “Kill rate in % after 6 d” value in [4] was determined as 100%.
Consider `Fc1cccc(F)c1C1=NC(c2ccc(-c3ccc(OC(F)(F)F)cc3)cc2)CC1(Cl)Cl` (centres unmarked) [drawing 66], for which, in data set [5], the “Kill rate in % after 6 d” value worked out at 100%.
Turning to `Fc1cccc(F)c1C1=NC(c2ccc(-c3ccc(OC(F)(F)F)cc3)cc2)CC1Cl` (centres unmarked) [drawing 67], the “Kill rate in % after 6 d” value in data set [5] is on record as 100%.
On the same count and under the same terms, to `Fc1cccc(F)c1C1=N[C@@H](c2ccc(-c3ccc(OC(F)(F)F)cc3)cc2)CC1(Cl)Cl` [drawing 68] belongs 100%.
Consider `Fc1cccc(F)c1C1=NC(c2ccc(-c3ccc(OC(F)(F)F)cc3)cc2)CC1(Cl)Cl` (centres unmarked) [drawing 69], for which the “Kill rate in % after 7 d” value in data set [6] was determined as 100%.
As for `Fc1cccc(F)c1C1=NC(c2ccc(-c3ccc(OC(F)(F)F)cc3)cc2)CC1Cl` (centres unmarked) [drawing 70], the “Kill rate in % after 7 d” value in [6] is reported as 100%.
Consider `Fc1cccc(F)c1C1=N[C@@H](c2ccc(-c3ccc(OC(F)(F)F)cc3)cc2)CC1(Cl)Cl` [drawing 71], for which the “Kill rate in % after 7 d” value in data set [6] is 100%.
On the same count and under the same terms, to `Fc1cccc(F)c1C1=N[C@@H](c2ccc(-c3ccc(OC(F)(F)F)cc3)cc2)CC1(Br)Br` [drawing 72] belongs 100%.
Regarding `Fc1cccc(F)c1C1=N[C@@H](c2ccc(-c3ccc(OC(F)(F)F)cc3)cc2)C/C1=C\c1ccc(Br)cc1` [drawing 73], the “Kill rate in % after 7 d” value in data set [6] is listed as 100%.
For the compound `O=S(=O)(Oc1ccc([C@H]2CC(Br)C(c3c(F)cccc3F)=N2)cc1)C(F)(F)F` (some centres unmarked) [drawing 74], in [6], the “Kill rate in % after 7 d” value came to 100%.
In the case of `O=S(=O)(Oc1ccc(-c2ccc([C@H]3C[C@H](Cl)C(c4c(F)cccc4F)=N3)cc2)cc1)C(F)(F)F` [drawing 75], the “Kill rate in % after 7 d” value in [6] was determined as 100%.
As for `Fc1cccc(F)c1C1=NC(c2ccc(-c3ccc(OC(F)(F)F)cc3)cc2)CC1(Cl)Cl` (centres unmarked) [drawing 84], the “Kill rate in % after 48 h” value in the data set with Lucilia cuprina larvae is 100%.
Take `Fc1cccc(F)c1C1=N[C@@H](c2ccc(-c3ccc(OC(F)(F)F)cc3)cc2)CC1(Cl)Cl` [drawing 85]: the “Kill rate in % after 48 h” value in the data set on Lucilia cuprina larvae is 100%.
Consider `O=S(=O)(Oc1ccc(-c2ccc([C@H]3C[C@H](Cl)C(c4c(F)cccc4F)=N3)cc2)cc1)C(F)(F)F` [drawing 86], for which, in the data set on Lucilia cuprina larvae, the “Kill rate in % after 48 h” value amounted to 100%.
Consider `Fc1cccc(F)c1C1=NC(c2ccc(-c3ccc(OC(F)(F)F)cc3)cc2)CC1(Cl)Cl` (centres unmarked) [drawing 87], for which the “Effect on ecdysis in %” value in data set [7] stood at 100%.
Turning to `Fc1cccc(F)c1C1=N[C@@H](c2ccc(-c3ccc(OC(F)(F)F)cc3)cc2)CC1(Cl)Cl` [drawing 88], the “Effect on ecdysis in %” value in [7] is 100%.
The same measure, in the same setting: to `O=S(=O)(Oc1ccc(-c2ccc([C@H]3C[C@H](Cl)C(c4c(F)cccc4F)=N3)cc2)cc1)C(F)(F)F` [drawing 89] belongs 100%.

Usually melting point stands for the temperature, or range, at which the solid turns liquid.
